Test results published in paper PMC7335050, “Characterization of an alternative BAK-binding site for BH3 peptides” (Nature Communications, 2020).
“And” between values parts separate entries of the source, which are not always exact repeats. Identical values can stand only once. “Also recorded” adds a separate entry of the source. Residues, ends and D or L forms follow the SMILES beside them.

Columns and labels:
BAKΔTM = biological target: T1, BAKΔTM (Homo sapiens, UniProt Q16611); experiment: SPR binding of BH3 peptides to immobilized BAKΔTM; conditions: for Kd: BAKΔTM immobilized on CM5 chip, steady-state analysis, three independent SPR assays, top concentrations not threefold above KD, read-out: Approximate dissociation constant ranges, KDs for BAK
T1 construct: BAKΔTM (GenBank BC004431, residues 1–186); His6; made in house; host or cells: E. coli BL21
T1 sequence (Q16611 1-186): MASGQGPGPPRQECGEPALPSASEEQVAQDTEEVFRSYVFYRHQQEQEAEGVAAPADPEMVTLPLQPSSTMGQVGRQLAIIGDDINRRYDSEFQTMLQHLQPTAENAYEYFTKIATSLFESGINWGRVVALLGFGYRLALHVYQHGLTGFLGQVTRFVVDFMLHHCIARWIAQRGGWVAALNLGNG

BAK (His6-BAKΔTM) = experiment: Liposome permeabilization assay (FITC-dextran release) with BAK; type: biochemical, human; conditions: 50 nM BAK + 50 nM BH3 peptide
Experimental: (§1) 1-Palmitoyl-2-oleoyl-sn-glycero-3-phosphocholine, 1-plamitoyl-2-oleoyl-sn-glycero-3-phosphoethanolamine, L-α-phosphatidyl-inositol, cardiolipin, cholesterol and 18:1 DGS-NTA(Ni) were mixed at a weight ratio of 36:22:9:8:20:5, and dried as thin films in glass test tubes under nitrogen for 16 h. To encapsulate FITC-labeled dextran 10 (F-d10), 50 mg F-d10 was added to 50 mg lipid in 1 ml of 150 KCl buffer containing 20 mM HEPES (pH 7.0), sonicated and extruded 15 times through a 400 nm polycarbonate membrane. Liposomes with F-d10 were further purified by gel filtration on Sephacryl S-300 HR (GE Healthcare). Phosphate was determined by colorimetric assay (Abcam, Cambridge, UK).
(§2) Release of F-d10 from large unilamellar vesicles (LUVs) was monitored by fluorescence dequenching[25] using a fluorimetric plate reader (Thermo Scientific) with SoftMax Pro software. After addition of purified His6-BAKΔTM and/or the BH3 peptides to LUVs (final lipid concentration 10 µg ml^−1), 96 well plates were incubated at 37 °C and recorded (excitation 485 nm, emission 538 nm) every 10 sec. FITC-labeled dextran release was calculated using the equation ((Fsample − Fblank)/(FTriton − Fblank) × 100%), where Fsample, Fblank, and FTriton are the fluorescence recorded for the reagent-, buffer-, and 1% Triton-treated LUVs, respectively.

[1] = system: Bak in mitochondria from Bax−/− MEFs; experiment: Cytochrome c release from mitochondria of Bax−/− MEFs; type: biochemical, mouse
Experimental: (§3) Mitochondria[43] purified from Bax^−/− MEFs were incubated with the indicated concentrations of navitoclax, S63845 or BH3 peptides at 25 °C for 90 min. After centrifugation (10,000 g, 15 min) and washing, supernatants and pellets were analyzed by immunoblotting. Alternatively, His6-BAKΔTM was dialyzed against mitochondria (mito) buffer (150 mM KCl, 5 mM MgCl2, 1 mM EGTA, 25 mM HEPES, pH 7.5) and diluted into mito buffer with 5 mM DTT. Mitochondria purified from Bak^−/−Bax^−/− MEFs were then incubated with 2 μM His6-BAKΔTM and the indicated BH3 peptides (5 μM) at 25 °C for 90 min. After centrifugation (10,000 × g, 15 min) and washing, supernatants and pellets were analyzed by immunoblotting.

human BAKΔTM = experiment: Cytochrome c release from mitochondria of Bak−/−Bax−/− MEFs plus purified human BAKΔTM; type: biochemical; conditions: 2 μM His6-BAKΔTM, 5 μM BH3 peptide, 25 °C, 90 min, immunoblotting
Experimental: as §3

BAK F161A = conditions: SPR, ~4000 RU immobilized, series of peptide concentrations, three independent experiments
Excerpt: (§4) Plasmids encoding BAKΔTM (GenBank BC004431, residues 1–186) in pET29b(+) was kindly provided by Qian Liu and Kalle Gehring (McGill University, Montreal, Canada)[34]. Plasmids encoding BAK 15–186 and the corresponding BAK mutants were generated using site-directed mutagenesis. All plasmids were subjected to automated sequencing to verify the described alterations and confirm that no additional mutations were present.
(§5) Proteins for SPR were further purified by FPLC on Superdex S200, concentrated in a centrifugal concentrator (Centricon, Millipore), dialyzed against Biacore buffer (10 mM 4-(2-hydroxyethyl)-1-piperazineethanesulfonic acid (HEPES; pH 7.4), 150 mM NaCl, 0.05 mM ethylenediaminetetraacetic acid (EDTA) and 0.005% (w/v) polysorbate 20) and stored at 4 °C for <48 h before use.
(§6) BAKΔTM or mutants were immobilized on a CM5 chip using a Biacore T200 biosensor with a blank channel as a negative control. Binding assays were performed at 25 °C using Biacore buffer containing the indicated BH3 peptides injected at 30 µl per min for 1 min using a Biacore T200 Control Software. Proteins were allowed to dissociate during perfusion with Biacore buffer at 30 µl per min for 10 min and then desorbed with 2 M MgCl2. All binding affinities were derived by Biacore T200 Evaluation Software using Steady State analysis (Biacore, Uppsala, Sweden).

BAK F93E = conditions: SPR, about 4000 RU immobilized, series of peptide concentrations, three independent experiments
Excerpt: as §4, §5, §6

BAK G126S = conditions: SPR, about 4000 RU immobilized, series of peptide concentrations, three independent experiments
Excerpt: as §4, §5, §6

BAK H164A/H165A = conditions: SPR, ~4000 RU immobilized, series of peptide concentrations, three independent experiments
Excerpt: as §4, §5, §6

BAKΔTM F161A = experiment: Liposome permeabilization assay with BAKΔTM F161A; type: biochemical, human; conditions: 50 nM BAKΔTM F161A vs WT, 50 nM BH3 peptide, three independent experiments
Experimental: as §1, §2

[2] = 90 min at 25 °C, immunoblotting of supernatants and pellets

SMILES: CC[C@H](C)[C@H](NC(=O)[C@H](CS)NC(=O)[C@H](C)NC(=O)[C@H](CC(C)C)NC(=O)[C@H](CCCNC(=N)N)NC(=O)[C@H](CC(C)C)NC(=O)[C@H](C)NC(=O)[C@H](CC(C)C)NC(=O)[C@H](C)NC(=O)[C@H](CC(=O)O)NC(=O)[C@H](CO)NC(=O)CNC(=O)[C@@H](N)CCC(=O)O)C(=O)NCC(=O)N[C@@H](CC(=O)O)C(=O)N[C@@H](CCC(=O)O)C(=O)N[C@@H](CCSC)C(=O)N[C@@H](CC(=O)O)C(=O)N[C@H](C(=O)N[C@@H](CO)C(=O)N[C@@H](CC(C)C)C(=O)N[C@@H](CCCNC(=N)N)C(=O)N[C@@H](C)C(=O)N1CCC[C@H]1C(=O)N[C@@H](CCCNC(=N)N)C(=O)O)C(C)C [BIK BH3] (H-EGSDALALRLACIGDEMDVSLRAPR-OH; N-terminus and C-terminus assumed)
- Kd (BAKΔTM; SPR, 25 °C): > 10 µM
- Binding to BAKΔTM by SPR, in words (BAKΔTM; SPR, immobilized BAKΔTM, 25 °C): did not detect interactions; also recorded: undetectable
- Increase of BAK-mediated liposome release, in words (BAK (His6-BAKΔTM)): did not appreciably increase
- Concentration that induced cytochrome c release ([1]; 90 min at 25 °C, immunoblotting of supernatants and pellets, 10 μM highest concentration tested): 10 µM
- Fold less active than the HRK BH3 peptide in cytochrome c release ([1]; MCL1 inhibitor S63845 added together with peptide, response to reviewers): about 10 fold
- Cytochrome c release, in words (human BAKΔTM): barely induced cytochrome c release

SMILES: CC[C@H](C)[C@H](NC(=O)[C@H](CS)NC(=O)[C@H](CCC(N)=O)NC(=O)[C@H](CC(C)C)NC(=O)[C@H](CCCCN)NC(=O)[C@H](CCCNC(=N)N)NC(=O)[C@H](C)NC(=O)[C@@H](NC(=O)[C@H](CCC(N)=O)NC(=O)[C@@H](NC(=O)[C@H](CCC(=O)O)NC(=O)[C@H](C)NC(=O)[C@@H](N)CCC(N)=O)C(C)C)[C@@H](C)CC)C(=O)N[C@@H](C)C(=O)N[C@@H](CC(=O)O)C(=O)N[C@@H](CCC(N)=O)C(=O)N[C@@H](Cc1ccccc1)C(=O)N[C@@H](Cc1c[nH]cn1)C(=O)N[C@@H](CCCNC(=N)N)C(=O)N[C@@H](CC(C)C)C(=O)N[C@@H](Cc1c[nH]cn1)C(=O)N[C@H](C(=O)N[C@@H](CCC(N)=O)C(=O)N[C@@H](CCC(N)=O)C(=O)N[C@@H](Cc1c[nH]cn1)C(=O)N[C@@H](CCC(N)=O)C(=O)O)C(C)C [BMF BH3] (H-QAEVQIARKLQCIADQFHRLHVQQHQ-OH; N-terminus and C-terminus assumed)
- Kd (BAKΔTM; SPR, 25 °C): 0.4 to 0.6 µM and < 1 µM
- Association and dissociation, direct comparison of SPR curves (BAKΔTM; peptides at 1600 nM, immobilized BAKΔTM): fastest association with BAKΔTM and slowest dissociation
- BAK-dependent release of liposome contents (FITC-dextran release) (BAK (His6-BAKΔTM); 37 °C, fluorescence dequenching, BAK alone 28%, mean of three independent experiments): 46%
- Cytochrome c release, in words (human BAKΔTM): intermediate amount
- Effect of BAK F161A mutation on peptide binding (maximum RU) vs WT BAKΔTM (BAK F161A): diminished binding
- Effect of BAK F93E mutation on peptide binding (maximum RU) vs WT BAKΔTM (BAK F93E): did not appreciably affect binding
- Effect of BAK G126S mutation on peptide binding (maximum RU) vs WT BAKΔTM (BAK G126S): did not appreciably affect binding
- Effect of BAK H164A/H165A mutation on peptide binding (maximum RU) vs WT BAKΔTM (BAK H164A/H165A): diminished binding
- Effect of F161A mutation on BAK-mediated liposome permeabilization initiated by the peptide (BAKΔTM F161A): markedly decreased

SMILES: Cc1c(-c2c(-c3ccc(F)o3)sc3ncnc(O[C@H](Cc4ccccc4OCc4ccnn4CC(F)(F)F)C(=O)O)c23)ccc(OCCN2CCN(C)CC2)c1Cl [S63845]
- Cytochrome c release, in words [1, 2]: failed to induce cytochrome c release

SMILES: CC1(C)CCC(c2ccc(Cl)cc2)=C(CN2CCN(c3ccc(C(=O)NS(=O)(=O)c4ccc(N[C@H](CCN5CCOCC5)CSc5ccccc5)c(S(=O)(=O)C(F)(F)F)c4)cc3)CC2)C1 [navitoclax]
- Cytochrome c release, in words [1, 2]: failed to induce cytochrome c release
- Effect on BIK or HRK BH3-induced cytochrome c release ([1]; navitoclax applied along with BIK BH3 or HRK BH3): did not enhance

SMILES: CC[C@H](C)[C@H](NC(=O)[C@H](CCC(=O)O)NC(=O)[C@H](CCCNC(=N)N)NC(=O)[C@H](C)NC(=O)[C@H](Cc1c[nH]c2ccccc12)NC(=O)[C@@H](N)CCC(N)=O)C(=O)NCC(=O)N[C@@H](C)C(=O)N[C@@H](CCC(N)=O)C(=O)N[C@@H](CC(C)C)C(=O)N[C@@H](CCCNC(=N)N)C(=O)N[C@@H](CCCNC(=N)N)C(=O)N[C@@H](CCSC)C(=O)N[C@@H](C)C(=O)N[C@@H](CC(=O)O)C(=O)N[C@@H](CC(=O)O)C(=O)N[C@@H](CC(C)C)C(=O)N[C@@H](CC(N)=O)C(=O)N[C@@H](C)C(=O)N[C@@H](CCC(N)=O)C(=O)N[C@@H](Cc1ccc(O)cc1)C(=O)N[C@@H](CCC(=O)O)C(=O)N[C@@H](CCCNC(=N)N)C(=O)N[C@@H](CCCNC(=N)N)C(=O)N[C@@H](CCCNC(=N)N)C(=O)N[C@@H](CCC(N)=O)C(=O)O [PUMA BH3, reference compound]
- Kd (BAKΔTM; SPR, 25 °C): 2 to 2.8 µM
- Effect of F161A mutation on BAK-mediated liposome permeabilization initiated by the peptide (BAKΔTM F161A): did not affect
